Assay results as given in patent US20070259329A1, “Anergy-inducing cellular composition” (BioVerde. Inc., priority 2006, published 2007).
Marks after values point to notes of the source that are not given here.

Legend:
CD11a = target: T1, CD11a (Mus musculus, UniProt P24063); assay: Lymphocyte marker analysis by flow cytometry, CD11a epitope; type: cell-based, murine (C57BI/6 splenocytes); conditions: for percent expression of cell surface molecule CD11a: epitope-specific antibody, average of triplicate; for average percent suppression in epitope detection, CD11a: relative to untreated control (0 ppm)
T1 construct: endogenous in cells; host or cells: murine splenocytes (C57Bl/6)
Experimental: (§1) To evaluate the action of EGCG in rendering cells to become anergy-inducing, murine splenocytes were used as a model system. Splenocytes were collected from BALB/c (H2 K^b) and C57BI/6 (H2 K^d) female mice of 8 to 13 weeks of age in HBSS (BioWhittaker) with 1% FCS. Cells were washed with HBSS (1% FCS) and treated with the media solution which contains RPMI 1640 (Sigma-Aldrich), 10 mM HEPES (Dojindo), and various concentrations of EGCG (98% purity, Roche) described in the examples.
(§2) Flow cytometric analyses of surface epitopes for the control and EGCG-treated splenocytes were performed using a series of fluorescence-labeled monoclonal anti-mouse CD and MHC and corresponding isotype control antibodies (eBioscience: CD2, CD36, CD4, CD11a, CD25, CD 28, CD 49d and CD80; Pharmingen: TCRαβ and MHC II). Murine splenocytes (C57BI/6) were treated with red blood cell lysis buffer (eBioscience) for 5 min prior to EGCG treatments. Immediately following EGCG-treatments, the splenocytes were washed with RPMI 1640 (10% FCS) and a staining buffer (eBioscience) at 4 degree C. Each splenocyte sample was reconstituted as a 50 μl aliquot in the same staining buffer and subject to antibody labeling. After washing twice the samples with the staining buffer, a minimum of 10,000 events per sample was collected on a Becton Dickinson FACScan flow cytometer.

CD2 = target: T2, CD2 (Mus musculus, UniProt P08920); assay: Lymphocyte marker analysis by flow cytometry, CD2 epitope; type: cell-based, murine (C57BI/6 splenocytes); conditions: for percent expression of cell surface molecule CD2: epitope-specific antibody, average of triplicate; for average percent suppression in epitope detection, CD2: relative to untreated control (0 ppm)
T2 construct: endogenous in cells; host or cells: murine splenocytes (C57Bl/6)
T2 sequence (P08920 23-344): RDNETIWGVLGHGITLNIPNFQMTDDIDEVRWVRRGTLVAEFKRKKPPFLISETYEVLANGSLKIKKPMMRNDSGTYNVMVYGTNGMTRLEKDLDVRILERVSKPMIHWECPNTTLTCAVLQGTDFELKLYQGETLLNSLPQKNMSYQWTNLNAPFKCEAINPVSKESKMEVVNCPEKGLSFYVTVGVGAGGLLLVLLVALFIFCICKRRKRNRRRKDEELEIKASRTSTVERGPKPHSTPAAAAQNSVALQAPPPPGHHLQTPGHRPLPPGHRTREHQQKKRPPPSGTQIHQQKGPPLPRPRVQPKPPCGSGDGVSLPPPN
Experimental: as §1, §2

CD4 = target: T3, CD4 (Mus musculus, UniProt P06332); assay: Lymphocyte marker analysis by flow cytometry, CD4 epitope; type: cell-based, murine (C57BI/6 splenocytes); conditions: for percent expression of cell surface molecule CD4: epitope-specific antibody, average of triplicate; for average percent suppression in epitope detection, CD4: relative to untreated control (0 ppm)
T3 construct: endogenous in cells; host or cells: murine splenocytes (C57Bl/6)
T3 sequence (P06332 27-457): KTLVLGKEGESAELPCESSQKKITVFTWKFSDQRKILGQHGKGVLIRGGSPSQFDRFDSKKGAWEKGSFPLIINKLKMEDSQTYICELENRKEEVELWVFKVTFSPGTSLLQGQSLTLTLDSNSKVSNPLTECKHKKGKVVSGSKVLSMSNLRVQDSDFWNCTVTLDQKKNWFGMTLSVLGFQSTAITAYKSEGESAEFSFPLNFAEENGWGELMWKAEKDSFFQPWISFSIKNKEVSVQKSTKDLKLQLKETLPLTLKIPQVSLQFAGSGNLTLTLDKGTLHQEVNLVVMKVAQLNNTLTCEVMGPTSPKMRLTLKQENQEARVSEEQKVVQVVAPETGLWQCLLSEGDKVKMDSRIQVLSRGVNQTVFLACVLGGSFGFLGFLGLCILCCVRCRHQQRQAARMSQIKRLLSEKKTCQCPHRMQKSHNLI
Experimental: as §1, §2

CD49d = target: T4, CD49d (Mus musculus, UniProt Q00651); assay: Lymphocyte marker analysis by flow cytometry, CD49d epitope; type: cell-based, murine (C57BI/6 splenocytes); conditions: for percent expression of cell surface molecule CD49d: epitope-specific antibody, average of triplicate; for average percent suppression in epitope detection, CD49d: relative to untreated control (0 ppm)
T4 construct: endogenous in cells; host or cells: murine splenocytes (C57Bl/6)
T4 sequence (Q00651 41-1039): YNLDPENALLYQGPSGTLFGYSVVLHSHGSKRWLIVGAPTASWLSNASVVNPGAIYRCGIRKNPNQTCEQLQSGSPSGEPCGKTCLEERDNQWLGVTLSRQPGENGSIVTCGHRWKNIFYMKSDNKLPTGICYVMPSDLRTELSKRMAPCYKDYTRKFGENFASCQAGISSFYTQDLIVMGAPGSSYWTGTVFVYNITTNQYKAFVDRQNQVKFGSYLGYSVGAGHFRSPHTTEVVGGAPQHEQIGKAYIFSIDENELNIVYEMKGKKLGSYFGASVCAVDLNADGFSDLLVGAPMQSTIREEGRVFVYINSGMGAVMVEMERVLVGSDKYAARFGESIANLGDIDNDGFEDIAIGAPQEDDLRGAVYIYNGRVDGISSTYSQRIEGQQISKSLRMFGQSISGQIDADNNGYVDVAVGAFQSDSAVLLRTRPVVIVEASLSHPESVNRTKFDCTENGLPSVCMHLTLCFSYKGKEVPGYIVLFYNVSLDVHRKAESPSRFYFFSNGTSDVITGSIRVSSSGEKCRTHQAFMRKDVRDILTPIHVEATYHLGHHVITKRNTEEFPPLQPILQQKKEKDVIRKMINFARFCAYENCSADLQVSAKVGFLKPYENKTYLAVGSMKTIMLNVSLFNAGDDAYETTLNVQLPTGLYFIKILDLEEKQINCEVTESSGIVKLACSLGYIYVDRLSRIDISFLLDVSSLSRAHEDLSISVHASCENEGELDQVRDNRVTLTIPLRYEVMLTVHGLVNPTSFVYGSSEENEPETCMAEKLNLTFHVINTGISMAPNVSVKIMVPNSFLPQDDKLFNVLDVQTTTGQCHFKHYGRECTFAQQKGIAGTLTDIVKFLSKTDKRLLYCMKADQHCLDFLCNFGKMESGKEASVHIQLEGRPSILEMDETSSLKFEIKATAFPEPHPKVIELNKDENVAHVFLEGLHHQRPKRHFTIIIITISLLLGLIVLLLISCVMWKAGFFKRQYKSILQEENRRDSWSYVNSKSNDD
Experimental: as §1, §2

[1] = tested on: BALB/c (stimulator cells) and C57BI/6 (responder cells) splenocytes; assay: Two-way mixed lymphocyte reaction (MLR); type: cell-based, murine; conditions: stimulator or responder cells treated with EGCG, 72 hours culture, FIG. 4
Text: In a two-way MLR (FIG. 4), both stimulator and responder populations were left capable of proliferating. […] (penicillin 100 U/ml and streptomycin 100 ppm, BioWhittaker) to a final concentration of 5.0×10^6 cells/ml. […] Cell proliferation was estimated by counting with trypan-blue exclusion a small sample of the cells from each MLR well.

T1 sequence (P24063 24-1162): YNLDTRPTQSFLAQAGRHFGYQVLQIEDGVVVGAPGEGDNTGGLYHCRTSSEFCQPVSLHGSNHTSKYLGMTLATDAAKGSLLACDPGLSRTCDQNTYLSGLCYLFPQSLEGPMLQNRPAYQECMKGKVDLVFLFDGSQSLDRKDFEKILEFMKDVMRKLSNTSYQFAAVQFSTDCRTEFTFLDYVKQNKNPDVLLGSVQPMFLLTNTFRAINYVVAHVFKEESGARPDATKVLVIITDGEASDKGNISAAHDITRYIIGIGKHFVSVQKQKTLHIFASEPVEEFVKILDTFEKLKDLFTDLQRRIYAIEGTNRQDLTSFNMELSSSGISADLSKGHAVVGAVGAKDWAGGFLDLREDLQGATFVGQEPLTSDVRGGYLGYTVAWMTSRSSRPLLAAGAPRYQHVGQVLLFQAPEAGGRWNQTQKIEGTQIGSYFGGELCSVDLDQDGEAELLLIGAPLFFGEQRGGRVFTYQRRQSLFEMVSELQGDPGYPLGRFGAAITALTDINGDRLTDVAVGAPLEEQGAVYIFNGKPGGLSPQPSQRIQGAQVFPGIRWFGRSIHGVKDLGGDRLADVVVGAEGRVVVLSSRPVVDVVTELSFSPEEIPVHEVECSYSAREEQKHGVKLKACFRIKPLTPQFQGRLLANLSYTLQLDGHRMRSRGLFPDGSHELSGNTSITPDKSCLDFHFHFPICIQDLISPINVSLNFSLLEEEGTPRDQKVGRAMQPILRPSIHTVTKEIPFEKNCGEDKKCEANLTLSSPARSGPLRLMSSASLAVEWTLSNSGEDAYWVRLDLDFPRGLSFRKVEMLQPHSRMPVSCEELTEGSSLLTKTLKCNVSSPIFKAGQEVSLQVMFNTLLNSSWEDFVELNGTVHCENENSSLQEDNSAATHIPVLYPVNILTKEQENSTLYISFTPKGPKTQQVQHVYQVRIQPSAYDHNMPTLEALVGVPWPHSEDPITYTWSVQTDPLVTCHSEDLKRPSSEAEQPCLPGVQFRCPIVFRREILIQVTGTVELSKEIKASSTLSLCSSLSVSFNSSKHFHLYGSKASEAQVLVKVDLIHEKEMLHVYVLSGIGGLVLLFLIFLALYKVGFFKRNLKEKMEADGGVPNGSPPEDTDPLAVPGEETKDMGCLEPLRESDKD
T1 sequence (P11835 24-771 partner): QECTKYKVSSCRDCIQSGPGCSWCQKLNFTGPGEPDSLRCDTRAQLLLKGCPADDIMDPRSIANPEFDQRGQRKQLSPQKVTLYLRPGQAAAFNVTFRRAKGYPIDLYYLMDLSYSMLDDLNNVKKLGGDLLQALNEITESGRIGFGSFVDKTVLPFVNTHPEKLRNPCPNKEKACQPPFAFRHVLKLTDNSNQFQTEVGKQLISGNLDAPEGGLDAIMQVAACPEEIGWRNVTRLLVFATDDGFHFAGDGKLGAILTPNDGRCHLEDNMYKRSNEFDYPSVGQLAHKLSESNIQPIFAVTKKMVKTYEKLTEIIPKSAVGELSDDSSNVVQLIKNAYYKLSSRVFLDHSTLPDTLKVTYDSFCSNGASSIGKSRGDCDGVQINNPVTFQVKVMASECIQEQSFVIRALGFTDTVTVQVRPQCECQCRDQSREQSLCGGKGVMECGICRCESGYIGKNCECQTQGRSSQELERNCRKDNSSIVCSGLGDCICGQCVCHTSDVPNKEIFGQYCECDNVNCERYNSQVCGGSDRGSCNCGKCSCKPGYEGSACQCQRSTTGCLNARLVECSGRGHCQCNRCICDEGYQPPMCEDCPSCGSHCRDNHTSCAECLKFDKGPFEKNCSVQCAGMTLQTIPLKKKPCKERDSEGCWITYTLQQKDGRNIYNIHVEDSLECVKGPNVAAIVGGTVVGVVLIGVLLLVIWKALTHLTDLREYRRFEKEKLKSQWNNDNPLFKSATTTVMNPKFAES

Substance: (−)-epigallocatechin-3-o-gallate [EGCG]
- percent expression of cell surface molecule CD11a (CD11a; EGCg 100 ppm): 90.1%
- average percent suppression in epitope detection, CD11a (CD11a; EGCg 100 ppm): (4.1)** percent
- percent expression of cell surface molecule CD11a (CD11a; EGCg 200 ppm): 90.0%
- average percent suppression in epitope detection, CD11a (CD11a; EGCg 200 ppm): (4.3)** percent
- percent expression of cell surface molecule CD2 (CD2; EGCg 100 ppm): 85.9%
- average percent suppression in epitope detection, CD2 (CD2; EGCg 100 ppm): (9.5)** percent
- percent expression of cell surface molecule CD2 (CD2; EGCg 200 ppm): 90.8%
- average percent suppression in epitope detection, CD2 (CD2; EGCg 200 ppm): (4.3)** percent
- percent expression of cell surface molecule CD4 (CD4; EGCg 100 ppm): 21.1%
- average percent suppression in epitope detection, CD4 (CD4; EGCg 100 ppm): (12.1)* percent
- percent expression of cell surface molecule CD4 (CD4; EGCg 200 ppm): 20.8%
- average percent suppression in epitope detection, CD4 (CD4; EGCg 200 ppm): (13.3)* percent
- percent expression of cell surface molecule CD49d (CD49d; EGCg 100 ppm): 19.7%
- average percent suppression in epitope detection, CD49d (CD49d; EGCg 100 ppm): (54.1)** percent
- percent expression of cell surface molecule CD49d (CD49d; EGCg 200 ppm): 20.5%
- average percent suppression in epitope detection, CD49d (CD49d; EGCg 200 ppm): (52.2)** percent
- blocking of CD49d by EGCG (CD49d; summary of TABLE 1): blocked
- proliferation of splenocytes [1]: significantly decreased
